According to ChEMBL document CHEMBL1201862, “PubChem BioAssay data set” (2004):
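All cell lines were grown in 96-well plates and treated with compound for 48 hours. At the GI50, growth is halved.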 Activity calls are given as the source filed them. No stated cut-off is given here; in the data, active = GI50 up to about 1.1 µM and inactive = higher.

Assays:
Test in all cases: NCI-60 cell line screen, 48 h
NCI-H226 = test system: NCI-H226
U-251 = test system: U-251
MCF7 = test system: MCF7
786-0 = test system: 786-0
RPMI-8226 = test system: RPMI-8226
BT-549 = test system: BT-549
DU-145 = test system: DU-145
SR = test system: SR
HT-29 = test system: HT-29
MDA-N = test system: MDA-N
MDA-MB-231 = test system: MDA-MB-231
T47D = test system: T47D
MOLT-4 = test system: MOLT-4
CAKI-1 = test system: CAKI-1
SNB-75 = test system: SNB-75
HCT-15 = test system: HCT-15
OVCAR-8 = test system: OVCAR-8
OVCAR-4 = test system: OVCAR-4
SN12C = test system: SN12C
IGROV-1 = test system: IGROV-1
NCI/ADR-RES = test system: NCI/ADR-RES
NCI-H460 = test system: NCI-H460
MDA-MB-435 = test system: MDA-MB-435
A549 = test system: A549
UACC-62 = test system: UACC-62
CCRF-CEM = test system: CCRF-CEM
Malme-3M = test system: Malme-3M
PC-3 = test system: PC-3
SNB-19 = test system: SNB-19
UACC-257 = test system: UACC-257
HCT-116 = test system: HCT-116
HCC 2998 = test system: HCC 2998
SK-MEL-5 = test system: SK-MEL-5
SF-539 = test system: SF-539
M14 = test system: M14
SF-295 = test system: SF-295
HL-60 = test system: HL-60
NCI-H522 = test system: NCI-H522
RXF 393 = test system: RXF 393
COLO 205 = test system: COLO 205
KM12 = test system: KM12
OVCAR-5 = test system: OVCAR-5
SK-MEL-2 = test system: SK-MEL-2
TK-10 = test system: TK-10
ACHN = test system: ACHN
Hs-578T = test system: Hs-578T
SF-268 = test system: SF-268
HOP-62 = test system: HOP-62
SK-MEL-28 = test system: SK-MEL-28
EKVX = test system: EKVX
OVCAR-3 = test system: OVCAR-3
NCI-H23 = test system: NCI-H23
K562 = test system: K562
LOX IMVI = test system: LOX IMVI
UO-31 = test system: UO-31
HOP-92 = test system: HOP-92
SW-620 = test system: SW-620
A498 = test system: A498

Question: Which GI50 (NCI-H226) does the source give for Oc1ccc([C@H]2c3c(O)cc(O)cc3C3c4c(cc(O)cc4[C@@H]2[C@H]2c4cc(O)cc5c4C(c4cc(O)cc(O)c4[C@@H]2c2ccc(O)cc2)[C@@H](c2ccc(O)cc2)O5)O[C@@H]3c2ccc(O)cc2)cc1 (some centres not stated) here?
Answer: The GI50 was > 100 µM (inactive).

Question: What about the GI50 (U-251) of the same molecule?
Answer: The GI50 was 3.55 µM (inactive).

Question: And the GI50 (MCF7)?
Answer: Its GI50 is 0.955 µM (active).

Question: And the GI50 (786-0)?
Answer: The GI50 was 4.94 µM (inactive).

Question: And the GI50 (RPMI-8226)?
Answer: Its GI50 is 41.4 µM (inactive).

Question: And the GI50 (BT-549)?
Answer: The GI50 was > 100 µM (inactive).

Question: What about the GI50 (DU-145) of the same molecule?
Answer: Its GI50 is 2.99 µM (inactive).

Question: What about the GI50 (SR) of the same molecule?
Answer: Its GI50 is 16.9 µM (inactive).

Question: And the GI50 (HT-29)?
Answer: The GI50 was 0.861 µM (active).

Question: What about the GI50 (MDA-N) of the same molecule?
Answer: The GI50 was 0.871 µM (active).

Question: And the GI50 (MDA-MB-231)?
Answer: Its GI50 is > 100 µM (inactive).

Question: What about the GI50 (T47D) of the same molecule?
Answer: The GI50 was 0.536 µM (active).

Question: And the GI50 (MOLT-4)?
Answer: Its GI50 is 0.975 µM (active).

Question: And the GI50 (CAKI-1)?
Answer: Its GI50 is > 100 µM (inactive).

Question: What about the GI50 (SNB-75) of the same molecule?
Answer: Its GI50 is 0.5 µM (active).

Question: And the GI50 (HCT-15)?
Answer: The GI50 was over 100 µM.

Question: What about the GI50 (OVCAR-8) of the same molecule?
Answer: The GI50 was 2.69 µM (inactive).

Question: What about the GI50 (OVCAR-4) of the same molecule?
Answer: Its GI50 is 0.83 µM (active).

Question: And the GI50 (SN12C)?
Answer: The GI50 was > 100 µM (inactive).

Question: And the GI50 (IGROV-1)?
Answer: Its GI50 is 6.73 µM (inactive).

Question: And the GI50 (NCI/ADR-RES)?
Answer: Its GI50 is > 100 µM (inactive).

Question: And the GI50 (NCI-H460)?
Answer: Its GI50 is 3.89 µM (inactive).

Question: What about the GI50 (MDA-MB-435) of the same molecule?
Answer: Its GI50 is 2.59 µM (inactive).

Question: And the GI50 (A549)?
Answer: The GI50 was 0.634 µM (active).

Question: What about the GI50 (UACC-62) of the same molecule?
Answer: Its GI50 is 0.15 µM (active).

Question: And the GI50 (CCRF-CEM)?
Answer: Its GI50 is 1.53 µM (inactive).

Question: And the GI50 (Malme-3M)?
Answer: Its GI50 is 0.411 µM (active).

Question: And the GI50 (PC-3)?
Answer: Its GI50 is 0.391 µM (active).

Question: And the GI50 (SNB-19)?
Answer: The GI50 was 3.35 µM (inactive).

Question: And the GI50 (UACC-257)?
Answer: The GI50 was 0.356 µM (active).

Question: And the GI50 (HCT-116)?
Answer: The GI50 was 0.861 µM (active).

Question: What about the GI50 (HCC 2998) of the same molecule?
Answer: The GI50 was 0.452 µM (active).

Question: What about the GI50 (SK-MEL-5) of the same molecule?
Answer: Its GI50 is 7.41 µM (inactive).

Question: What about the GI50 (SF-539) of the same molecule?
Answer: Its GI50 is 0.564 µM (active).

Question: What about the GI50 (M14) of the same molecule?
Answer: The GI50 was 6.25 µM (inactive).

Question: And the GI50 (SF-295)?
Answer: The GI50 was 3.86 µM (inactive).

Question: And the GI50 (HL-60)?
Answer: The GI50 was 2.48 µM (inactive).

Question: What about the GI50 (NCI-H522) of the same molecule?
Answer: The GI50 was 7.45 µM (inactive).

Question: What about the GI50 (RXF 393) of the same molecule?
Answer: Its GI50 is 0.0486 µM (active).

Question: And the GI50 (COLO 205)?
Answer: The GI50 was 0.348 µM (active).

Question: What about the GI50 (KM12) of the same molecule?
Answer: The GI50 was 0.0211 µM (active).

Question: What about the GI50 (OVCAR-5) of the same molecule?
Answer: The GI50 was 0.678 µM (active).

Question: And the GI50 (SK-MEL-2)?
Answer: The GI50 was 1.58 µM (inactive).

Question: And the GI50 (TK-10)?
Answer: The GI50 was > 100 µM (inactive).

Question: And the GI50 (ACHN)?
Answer: Its GI50 is 6.93 µM (inactive).

Question: And the GI50 (Hs-578T)?
Answer: The GI50 was 0.0497 µM (active).

Question: And the GI50 (SF-268)?
Answer: The GI50 was 1.61 µM (inactive).

Question: And the GI50 (HOP-62)?
Answer: Its GI50 is 1.09 µM (active).

Question: And the GI50 (SK-MEL-28)?
Answer: Its GI50 is 0.182 µM (active).

Question: And the GI50 (EKVX)?
Answer: Its GI50 is 0.29 µM (active).

Question: What about the GI50 (OVCAR-3) of the same molecule?
Answer: The GI50 was 0.569 µM (active).

Question: And the GI50 (NCI-H23)?
Answer: The GI50 was 0.526 µM (active).

Question: What about the GI50 (K562) of the same molecule?
Answer: Its GI50 is 35.2 µM (inactive).

Question: And the GI50 (LOX IMVI)?
Answer: Its GI50 is 2.41 µM (inactive).

Question: Which results are given for CC(CO)(CO)Nc1ncnc2ccccc12?
Answer: GI50 (NCI-H226): > 100 µM (inactive); GI50 (U-251): > 100 µM (inactive); GI50 (786-0): > 100 µM (inactive); GI50 (BT-549): > 100 µM (inactive); GI50 (UO-31): > 100 µM (inactive); GI50 (DU-145): > 100 µM (inactive); GI50 (SR): 66.1 µM (inactive); GI50 (HT-29): > 100 µM (inactive); GI50 (MDA-N): > 100 µM (inactive); GI50 (MDA-MB-231): > 100 µM (inactive); GI50 (T47D): > 100 µM (inactive); GI50 (MOLT-4): > 100 µM (inactive); GI50 (CAKI-1): > 100 µM (inactive); GI50 (SNB-75): > 100 µM (inactive); GI50 (HCT-15): > 100 µM; GI50 (OVCAR-8): > 100 µM (inactive); GI50 (OVCAR-4): > 100 µM (inactive); GI50 (SN12C): > 100 µM (inactive); GI50 (IGROV-1): > 100 µM (inactive); GI50 (NCI/ADR-RES): > 100 µM (inactive); GI50 (NCI-H460): > 100 µM (inactive); GI50 (MDA-MB-435): > 100 µM (inactive); GI50 (A549): > 100 µM (inactive); GI50 (UACC-62): > 100 µM (inactive); GI50 (CCRF-CEM): > 100 µM (inactive); GI50 (Malme-3M): > 100 µM (inactive); GI50 (PC-3): > 100 µM (inactive); GI50 (SNB-19): > 100 µM (inactive); GI50 (UACC-257): > 100 µM (inactive); GI50 (HCT-116): > 100 µM (inactive); GI50 (HCC 2998): > 100 µM (inactive); GI50 (SK-MEL-5): 50.1 µM (inactive); GI50 (M14): > 100 µM (inactive); GI50 (SF-295): > 100 µM (inactive); GI50 (NCI-H522): > 100 µM (inactive); GI50 (RXF 393): > 100 µM (inactive); GI50 (HOP-92): > 100 µM (inactive); GI50 (KM12): > 100 µM (inactive); GI50 (OVCAR-5): > 100 µM (inactive); GI50 (SK-MEL-2): > 100 µM (inactive); GI50 (TK-10): > 100 µM (inactive); GI50 (ACHN): > 100 µM (inactive); GI50 (Hs-578T): > 100 µM (inactive); GI50 (SW-620): > 100 µM (inactive); GI50 (SF-268): > 100 µM (inactive); GI50 (HOP-62): > 100 µM (inactive); GI50 (SK-MEL-28): > 100 µM (inactive); GI50 (EKVX): 66.8 µM (inactive); GI50 (OVCAR-3): > 100 µM (inactive); GI50 (NCI-H23): > 100 µM (inactive); GI50 (K562): > 100 µM (inactive); GI50 (LOX IMVI): > 100 µM (inactive); GI50 (A498): > 100 µM (inactive)
